Laboratory results: patent US7968556B2, “Heteroaryl compounds, compositions thereof, and methods of treatment therewith” (Signal Pharmaceuticals, LLC, priority 2006, dated 2011)

Tests used:
[1] = target: mTOR (Homo sapiens, UniProt P42345); experiment: mTOR HTR-FRET Assay; format: biochemical
Protocol: The following is an example of an assay that can be used to determine the mTOR inhibitory activity of a test compound. Reagents are prepared as follows:
“Simple TOR buffer” (used to dilute high glycerol TOR fraction): 10 mM Tris pH 7.4, 10 mM NaCl, 0.1% Tween-20, 1 mM DTT (from 1M stock frozen at −20° C. just prior to use). For convenience a large quantity of “Simple TOR buffer” w/o DTT can be stored at 4° C. It can be brought to room temperature and DTT added just prior to dilution of TOR fraction.
5XKB/5XMn/5×ATP solution (used to dilute substrate GST-p70S6kin 81 a.a. just prior to use) (40 ml screen quantity shown):
Enzyme solution: Dilute TOR fraction 1:14 in “Simple TOR Buffer”. For current lot that is 640 μg/ml TOR fraction diluted 14× to yield 45.7 μg/ml TOR in buffer (i.e. 7.85 ml TOR pooled fraction+102.1 ml Simple TOR buffer=110 ml 14× diluted TOR fraction). Each Enzyme Lot must be QC'd prior to assay.
Substrate solution: This may be prepared just prior to assay if preferred. Dilute 5.3 mg/ml GST-p70S6kinase fragment stock to 3.5 μg/ml (97 nM) working stock in 5XKB/5XMn/5×ATP solution (i.e. 26.41 μL (5.3 mg/ml) GST-p70S6+40 ml 5XKB/5XMn/5×ATP=40 ml 3.5 μg/ml (97 nM)).
Assay Buffer (for dilution of Antibodies used in Antibody Detection Reagent):
Antibody Detection Reagent (this reagent should be made just prior to addition to Assay Plates):
Using PlateTrak program (Screen) or Matrix Pipettor (SAR), 19.5 μL of diluted TOR fraction is added to assay plate in all test, reference or positive control wells. 19.5 μL of “Simple TOR buffer” is added to all negative control wells. If treating multiple plates with the same compounds, can increase volume of enzyme to multiples of 19.5 μL in a tall 384 well polypropylene plate.
Using EP3, 0.5 μl of test, reference or control DMSO is added to each well with mixing. Plates are incubated for 30 minutes at room temperature.
Using PlateTrak program (Screen) or Matrix Pipettor (SAR) 5 μL of 5XKB/5XMn/5×ATP/5× substrate solution is added to each well of the assay plate to start the reaction. The solutions are mixed well and incubated for 2 hours at room temperature.
Using PlateTrak program (Screen) or Matrix Pipettor (SAR) 5 μL of 60 mM EDTA is added to stop the reaction. The solutions are mixed well and allowed to sit for 15-20 minutes before the next step.
Using PlateTrak program (Screen) or Matrix Pipettor (SAR) 10 μl of Antibody Detection Reagent is added. The solutions are mixes well and incubated for 5 hours to O/N to allow antibodies to form complexes with phosphorylated substrate.
Plates are read on AnalystHT using protocol Multi-Method protocol.

IC50 [1]	melting point	SMILES
10.1 to 20 µM	257 to 259 °C	COc1ccccc1-n1cnc2c(C(N)=O)nc(-c3cccc(O)c3)nc21 [Compound 39, 2-(3-hydroxyphenyl)-9-(2-methoxyphenyl)-9H-purine-6-carboxamide]
> 30 µM	295 to 296 °C	COc1ccccc1-n1c(=O)[nH]c2c(C(N)=O)nc(-c3cccc([N+](=O)[O-])c3)nc21 [Compound 26, 9-(2-methoxyphenyl)-2-(3-nitrophenyl)-8-oxo-8,9-dihydro-7H-purine-6-carboxamide]
0.1 to 5 µM	355 to 358 °C	NC(=O)c1nc(-c2cccc(O)c2)nc2c1[nH]c(=O)n2-c1c(F)cccc1F [Compound 16, 9-(2,6-difluorophenyl)-2-(3-hydroxyphenyl)-8-oxo-8,9-dihydro-7H-purine-6-carboxamide]
5.1 to 10 µM	–	COc1ccccc1-n1c(=O)[nH]c2c(C(N)=O)nc(-c3cncc(F)c3)nc21 [Compound 30, 2-(5-fluoropyridin-3-yl)-9-(2-methoxyphenyl)-8-oxo-8,9-dihydro-7H-purine-6-carboxamide]
> 30 µM	237 to 240 °C	COc1ccccc1-n1c(=O)[nH]c2c(C(N)=O)nc(-c3ccccc3C(F)(F)F)nc21 [Compound 29, 9-(2-methoxyphenyl)-8-oxo-2-(2-(trifluoromethyl)phenyl)-8,9-dihydro-7H-purine-6-carboxamide]
> 30 µM	> 375 °C	NC(=O)c1nc(-c2cccc(O)c2)nc2c1[nH]c(=O)n2-c1cccc(F)c1 [Compound 28, 9-(3-fluorophenyl)-2-(3-hydroxyphenyl)-8-oxo-8,9-dihydro-7H-purine-6-carboxamide]
5.1 to 10 µM	–	NC(=O)c1nc(-c2cccc(O)c2)nc2c1[nH]c(=O)n2-c1ccccc1OC(F)(F)F [Compound 24, 2-(3-hydroxyphenyl)-8-oxo-9-(2-(trifluoromethoxy)phenyl)-8,9-dihydro-7H-purine-6-carboxamide]
–	318 to 319 °C	COc1ccccc1-n1c(=O)[nH]c2c(C(N)=O)nc(-n3cnc4ccccc43)nc21 [Compound 134, 2-(1H-Benzo[d]imidazol-1-yl)-9-(2-methoxyphenyl)-8-oxo-8,9-dihydro-7H-purine-6-carboxamide]
–	244 to 248 °C (dec.)	NC(=O)c1nc(-c2cnccc2Cl)nc2c1[nH]c(=O)n2-c1ccccc1C(F)(F)F [Compound 109, 2-(4-Chloropyridin-3-yl)-8-oxo-9-(2-(trifluoromethyl)phenyl)-8,9-dihydro-7H-purine-6-carboxamide]
–	380 °C (dec.)	CC(C)c1ccccc1-n1c(=O)[nH]c2c(C(N)=O)nc(-c3cnc4[nH]ccc4c3)nc21 [Compound 136, 9-(2-Isopropylphenyl)-8-oxo-2-(1H-pyrrolo[2,3-b]pyridin-5-yl)-8,9-dihydro-7H-purine-6-carboxamide]

The next lines start with the molecule.

SMILES	IC50 [1]	melting point
NC(=O)c1nc(-c2cccnc2)nc2c1[nH]c(=O)n2C1CCCCCC1 [Compound 17, 9-cycloheptyl-8-oxo-2-(pyridin-3-yl)-8-9-dihydro-7H-purine-6-carboxamide]	0.1 to 5 µM	–
COc1ccc(-c2nc(C(N)=O)c3[nH]c(=O)n(-c4ccccc4OC)c3n2)cn1 [Compound 21, 9-(2-methoxyphenyl)-2-(6-methoxypyridin-3-yl)-8-oxo-8,9-dihydro-7H-purine-6-carboxamide]	10.1 to 20 µM	–
NC(=O)c1nc(-c2cccc(O)c2)nc2c1[nH]c(=O)n2-c1ccc(C(F)(F)F)cc1 [Compound 22, 2-(3-hydroxyphenyl)-8-oxo-9-(4-(trifluoromethyl)phenyl)-8,9-dihydro-7H-purine-6-carboxamide]	> 30 µM	–
COc1ccccc1-n1c(=O)[nH]c2c(C(N)=O)nc(-c3cccc4ncccc34)nc21 [Compound 18, 9-(2-methoxyphenyl)-8-oxo-2-(quinolin-5-yl)-8,9-dihydro-7H-purine-6-carboxamide]	> 30 µM	335 to 337 °C
COc1ccccc1-n1c(=O)[nH]c2c(C(N)=O)nc(C3CCCC3)nc21 [Compound 19, 2-cyclopentyl-9-(2-methoxyphenyl)-8-oxo-8,9-dihydro-7H-purine-6-carboxamide]	> 30 µM	244 to 246 °C
COc1ccccc1-n1c(=O)[nH]c2c(C(N)=O)nc(-c3cccc(OC(F)(F)F)c3)nc21 [Compound 34, 9-(2-methoxphenyl)-8-oxo-2-(3-(trifluoromethoxy)phenyl)-8,9-dihydro-7H-purine-6-carboxamide]	> 30 µM	269 to 272 °C
COc1ccccc1-n1c(=O)[nH]c2c(C(N)=O)nc(C3CCN(Cc4ccccc4)CC3)nc21 [Compound 31, 2-(1-benzylpiperidin-4-yl)-9-(2-methoxyphenyl)-8-oxo-8,9-dihydro-7H-purine-6-carboxamide]	> 30 µM	–
NC(=O)c1nc(-c2cccc(O)c2)nc2c1[nH]c(=O)n2Cc1ccccc1 [Compound 23, 9-benzyl-2-(3-hydroxyphenyl)-8-oxo-8,9-dihydro-7H-purine-6-carboxamide]	> 30 µM	362 to 366 °C
COc1ccccc1-n1c(=O)[nH]c2c(C(N)=O)nc(-c3cccc(C(F)(F)F)c3)nc21 [Compound 20, 9-(2-methoxyphenyl)-8-oxo-2-(3-(trifluoromethyl)phenyl)-8,9-dihydro-7H-purine-6-carboxamide]	> 30 µM	271 to 275 °C
COc1ccccc1-n1c(=O)[nH]c2c(C(N)=O)nc(Nc3ccc(O)cc3)nc21 [Compound 46, 2-(4-Hydroxyphenylamino)-9-(2-methoxyphenyl)-8-oxo-8,9-dihydro-7H-purine-6-carboxamide]	–	223 to 224 °C
COc1ccccc1-n1c(=O)[nH]c2c(C(N)=O)nc(N[C@@H]3CCNC3)nc21 [Compound 105, (R)-9-(2-Methoxyphenyl)-8-oxo-2-(pyrrolidin-3-ylamino)-8,9-dihydro-7H-purine-6-carboxamide]	–	> 400 °C
NC(=O)c1nc(-c2cccc(O)c2)nc2c1[nH]c(=O)n2-c1ccccc1C1CCCCC1 [Compound 132, 9-(2-Cyclohexylphenyl)-2-(3-hydroxyphenyl)-8-oxo-8,9-dihydro-7H-purine-6-carboxamide]	–	> 270 °C
COc1ccccc1-n1c(=O)[nH]c2c(C(N)=O)nc(Nc3ccccc3O)nc21 [Compound 56, 2-(2-Hydroxyphenylamino)-9-(2-methoxyphenyl)-8-oxo-8,9-dihydro-7H-purine-6-carboxamide]	–	314 to 315 °C
COc1ccccc1-n1c(=O)[nH]c2c(C(N)=O)nc(-c3ccc4[nH]c(SC)nc4c3)nc21 [Compound 138, 9-(2-Methoxyphenyl)-2-(2-(methylthio)-1H-benzo[d]imidazol-5-yl)-8-oxo-8,9-dihydro-7H-purine-6-carboxamide]	–	244 to 245 °C
NC(=O)c1nc(-c2cccc(O)c2)nc2c1[nH]c(=O)n2-c1ccc(Cl)cc1Cl [Compound 25, 9-(2,4-dichlorophenyl)-2-(3-hydroxyphenyl)-8-oxo-8,9-dihydro-7H-purine-6-carboxamide]	5.1 to 10 µM	375 to 377 °C
